According to patent publication US11911467B2, “Composition comprising PIC for treatment of cancer” (Yisheng Biopharma (Singapore) PTE LTD, priority 2016, dated 2024):
“And” between values parts separate entries of the source, which are not always exact repeats. Identical values can stand only once.

Key:
S180 tumor = test system: S180 tumor; parameters: species or system female Balb/c mice; settings: mouse, in vivo
[1] = test system: Ehrlich Ascites Cancer (EAC) tumor; parameters: species or system female Kunming mice; settings: mouse, in vivo
[2] = test system: LL/2 murine Lewis lung tumor
4T1 murine breast tumor = 4T1 murine breast tumor model (Example 3); assay type: in vivo, female Balb/c mice
Protocol: 1.1 Female Balb/c mice (6 weeks old, body weight 17.2±0.1 g) were obtained from Shanghai SIPPR-BK Laboratory Animal Co. Ltd.
The murine breast cancer cancer cell line 4T1 was obtained from American Type Culture Collection (ATCC), and maintained by HD Biosciences. Cells were maintained in DMEM with 10% fetal bovine serum in a atmosphere of 5% CO2 at 37° C. Passaging ratio was between 1:5 and 1:8, at the frequency of 3 to 4 times per week.
4T1 murine breast tumor model was established in female Balb/c mice by subcutaneous inoculation with 1×10^6 cells per animal. The rate of tumor formation was 100%. Three days post cell inoculation, the cell inoculated mice were randomly sorted into treatment groups by weight. Animals in each group were administered according to Table 2.
There were 4 groups: Vehicle group, Docetaxel group, YS-ON-001 low dose group, and YS-ON-001 high dose group.
2. The Studies were Terminated when the Average Tumor Volume in Vehicle Group Reached 2500 mm^3
3. At the end of study, the tumor mass was removed and photographed. The tumor weight was recorded. The thymus and spleen was removed and weighed. And then, the organ index was calculated.
III. Observational Indices: Same as in Example 2 Section III.
Data were reported as Mean±SEM. Comparison between groups was analysed using ANOVA.

[3] = Cisplatin 5 mg/kg i.v. QW, total 3 dosing, end of study
[4] = Docetaxel 10 mg/kg i.v. QW, total 3 dosing, end of study

With `O=P1(N(CCCl)CCCl)NCCCO1` (centres unmarked) [CTX, Cyclophosphamide] the “Tumor growth (tumor volume) compared with saline control group” value (S180 tumor) was “significantly inhibited the tumor growth”, the “Tumor weight compared with saline control group” value (S180 tumor) was “significantly decreased tumor weight” and the “Day on which all mice were dead” value [1] was 30 days. The “Day on which death was first observed” value [1] was 27 days and the “Median duration (to death)” value [1] was 29 days and 34.5 days.

`N.N.[Cl][Pt][Cl]` [Cisplatin] was tested, and the “Number of lung metastases compared with vehicle group” value (B16F10 metastasis tumor; day 15, Cisplatin 5 mg/kg i.v. Q4D, YS-ON-001 200 μg/0.2 mL/mice/dose i.m./s.c. BID, p<0.01) was “significantly decreased”, the “Spleen weight and spleen index compared with vehicle group” value (B16F10 metastasis tumor; mouse, in vivo) was “not affected” and the “Thymus weight and thymus index compared with vehicle group” value (B16F10 metastasis tumor; mouse, in vivo) was “significantly decreased”. For the same compound, the “Relative tumor proliferation rate T/C” value [2, 3] was 53.04%, the “Tumor inhibition rate (tumor weight)” value [2, 3] was 29.46% and the “Spleen index compared to vehicle group” value ([2]; mouse, in vivo) was “trend of reducing which is not significant”. The “Spleen weight compared to vehicle group” value ([2]; mouse, in vivo) was “significantly reduced” and the “Thymus weight and thymus index compared to vehicle group” value ([2]; mouse, in vivo) was “significantly reduced”.

For `CC(=O)O[C@@]12CO[C@@H]1C[C@H](O)[C@@]1(C)C(=O)[C@H](O)C3=C(C)[C@@H](OC(=O)[C@H](O)[C@@H](NC(=O)OC(C)(C)C)c4ccccc4)C[C@@](O)([C@@H](OC(=O)c4ccccc4)[C@H]21)C3(C)C` [Docetaxel], the “Relative tumor proliferation rate T/C” value (4T1 murine breast tumor; [4]) was 50.12%, the “Tumor inhibition rate (tumor weight)” value (4T1 murine breast tumor; [4]) was 35.55% and the “Body weight compared to vehicle group” value (4T1 murine breast tumor; Docetaxel 10 mg/kg, Day 8 and Day 13 to end of study, p<0.01) was “significantly affected”. The “Body weight change compared to vehicle group” value (4T1 murine breast tumor; Docetaxel: Day 4 to end, two YS-ON-001 groups: Day 4 and Day 15 to end) was “significantly reduced”, the “Spleen weight compared to vehicle group” value (4T1 murine breast tumor; end of study, doses of Table 2) was “significantly reduced” and the “Thymus weight and thymus index compared to vehicle group” value (4T1 murine breast tumor; end of study, doses of Table 2) was “significantly reduced”. For the same compound, the “Spleen index compared to vehicle group” value (4T1 murine breast tumor; end of study, doses of Table 2, YS-ON-001 p<0.01 low dose, p<0.05 high dose) was “significantly reduced”.
